Reference: US20260078122A1, “INDAZOLE COMPOUNDS AS PKMYT1 KINASE INHIBITORS” (Hoffmann-La Roche Inc., priority 2023, published 2026)
Where two headings read alike, the source gives them in different places.

Columns and labels:
[1] = microsomes, pH 7.4
[2] = Human microsome stability assay; conditions: 1 μM compound, 0.5 mg/mL liver microsomal protein, 1 mM NADPH, 37° C., 0-30 minutes
[3] = GSH adduct screening assay; type: in vitro ADME, human; parameters: key: GSH adducts found (Flag); or not (No Flag); conditions: 20 μM compound, HLM 1 mg/ml, 5 mM GSH, 1 mM NADPH, 60 minutes at 37° C.
[4] = molecular target: T1, recombinant human Myt1 (full length PKMYT1) (Homo sapiens, UniProt Q99640); assay: ADP-Glo assay (Myt1 kinase activity)
T1 sequence (Q99640 1-499): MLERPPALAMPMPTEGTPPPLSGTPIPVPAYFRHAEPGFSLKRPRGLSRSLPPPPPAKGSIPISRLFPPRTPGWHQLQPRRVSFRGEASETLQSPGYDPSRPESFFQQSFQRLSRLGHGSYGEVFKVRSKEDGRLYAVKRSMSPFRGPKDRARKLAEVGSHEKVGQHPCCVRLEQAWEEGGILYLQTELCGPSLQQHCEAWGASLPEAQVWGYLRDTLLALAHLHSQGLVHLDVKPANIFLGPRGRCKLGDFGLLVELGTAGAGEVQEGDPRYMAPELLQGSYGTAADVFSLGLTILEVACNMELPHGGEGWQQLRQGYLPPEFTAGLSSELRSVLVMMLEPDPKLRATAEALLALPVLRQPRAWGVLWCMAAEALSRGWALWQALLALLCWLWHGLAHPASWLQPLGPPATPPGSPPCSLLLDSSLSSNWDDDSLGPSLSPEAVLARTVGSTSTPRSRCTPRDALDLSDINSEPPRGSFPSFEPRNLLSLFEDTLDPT

[5] = Human hepatocyte stability assay; type: in vitro ADME; conditions: 1 μM compound, 1*10^6 cells/mL, 2-120 min

SMILES | Clearance of Human microsome [1] | Clearance of Human microsome [2] | GSH adduct [3] | IC50 [4] | Clearance of Human hepatocyte (μL/min/10^6 cell) [5]
Cc1cc2[nH]c(=O)c(N)c(-c3ccc(F)c4[nH]ncc34)c2nc1N1CC2(COC2)C1 [Example 026, 3-Amino-4-(7-fluoro-1H-indazol-4-yl)-7-methyl-6-(2-oxa-6-azaspiro[3.3]heptan-6-yl)-1H-1,5-naphthyridin-2-one] | 8.87 mL/min/kg |  |  |  | 
Cc1cc2[nH]c(=O)c(N)c(-c3ccc(F)c4[nH]ncc34)c2nc1Cl [Example 003, 3-Amino-6-chloro-4-(7-fluoro-1H-indazol-4-yl)-7-methyl-1H-1,5-naphthyridin-2-one] |  | 8.88 mL/min/kg | No Flag |  | 
CCOc1cnc(C)c2[nH]c(=O)c(N)c(-c3ccc(F)c4[nH]ncc34)c12 [Example 184, 3-Amino-5-ethoxy-4-(7-fluoro-1H-indazol-4-yl)-8-methyl-1H-1,7-naphthyridin-2-one] |  | 6.20 mL/min/kg |  | < 10 nM | 1.3 μL/min/10^6 cell
Cc1c(CC(F)(F)F)cnc2c(-c3ccc(F)c4[nH]ncc34)c(N)c(=O)[nH]c12 [Example 133, 3-Amino-4-(7-fluoro-1H-indazol-4-yl)-8-methyl-7-(2,2,2-trifluoroethyl)-1H-1,5-naphthyridin-2-one] |  |  |  | < 10 nM | 1.7 μL/min/10^6 cell
Cc1cnc2c(-c3ccc(Cl)c4[nH]ncc34)c(N)c(=O)[nH]c2c1C [Example 146, 3-Amino-4-(7-chloro-1H-indazol-4-yl)-7,8-dimethyl-1H-1,5-naphthyridin-2-one] |  | 6.15 mL/min/kg |  | < 10 nM | 1.2 μL/min/10^6 cell
COc1cnc(C)c2[nH]c(=O)c(N)c(-c3ccc(F)c4[nH]ncc34)c12 [Example 173, 3-Amino-4-(7-fluoro-1H-indazol-4-yl)-5-methoxy-8-methyl-1H-1,7-naphthyridin-2-one] |  | 6.15 mL/min/kg |  | 15.2 nM | <1 μL/min/10^6 cell
Nc1c(-c2ccc(F)c3[nH]ncc23)c2ncc(C3CC3)cc2[nH]c1=O [Example 015, 3-Amino-7-cyclopropyl-4-(7-fluoro-1H-indazol-4-yl)-1H-1,5-naphthyridin-2-one] |  | 7.03 mL/min/kg | No Flag |  | 2.6 μL/min/10^6 cell
N#Cc1nc(C2CC2)cc2[nH]c(=O)c(N)c(-c3ccc(F)c4[nH]ncc34)c12 [Example 167, 3-Amino-7-cyclopropyl-4-(7-fluoro-1H-indazol-4-yl)-2-oxo-1H-1,6-naphthyridine-5-carbonitrile] |  | 6.80 mL/min/kg |  | 14.5 nM | <1 μL/min/10^6 cell
Cc1cc2[nH]c(=O)c(N)c(-c3ccc(F)c4[nH]ncc34)c2nc1C [Example 017, 3-Amino-4-(7-fluoro-1H-indazol-4-yl)-6,7-dimethyl-1H-1,5-naphthyridin-2-one] |  |  |  |  | 1.6 μL/min/10^6 cell
Cc1cnc2c(-c3ccc(F)c4[nH]ncc34)c(N)c(=O)[nH]c2c1 [Example 002, 3-Amino-4-(7-fluoro-1H-indazol-4-y1)-7-methyl-1H-1,5-naphthyridin-2-one] |  |  |  |  | 1.3 μL/min/10^6 cell
Cc1c(Cl)cnc2c(-c3ccc(F)c4[nH]ncc34)c(N)c(=O)[nH]c12 [Example 099, 3-Amino-7-chloro-4-(7-fluoro-1H-indazol-4-yl)-8-methyl-1H-1,5-naphthyridin-2-one] |  | 6.15 mL/min/kg |  | < 10 nM | <1 μL/min/10^6 cell
Cc1cc2[nH]c(=O)c(N)c(-c3ccc(F)c4[nH]ncc34)c2nc1C#CC(C)(C)O [Example 070, 3-Amino-4-(7-fluoro-1H-indazol-4-yl)-6-(3-hydroxy-3-methyl-but-1-ynyl)-7-methyl-1H-1,5-naphthyridin-2-one] |  |  |  |  | 1.4 μL/min/10^6 cell
Cc1nc(Cl)c2c(-c3ccc(F)c4[nH]ncc34)c(N)c(=O)[nH]c2c1C [Example 160, 3-Amino-5-chloro-4-(7-fluoro-1H-indazol-4-yl)-7,8-dimethyl-1H-1,6-naphthyridin-2-one] |  |  | No Flag | 11.5 nM | 
[2H]C([2H])([2H])c1cnc2c(-c3ccc(F)c4[nH]ncc34)c(N)c(=O)[nH]c2c1C [Example 101, 3-Amino-4-(7-fluoro-1H-indazol-4-yl)-8-methyl-7-(trideuteriomethyl)-1H-1,5-naphthyridin-2-one] |  |  |  |  | <1 μL/min/10^6 cell
Nc1c(-c2ccc(F)c3[nH]ncc23)c2c(Cl)nc(C3CC3)cc2[nH]c1=O [Example 163, 3-Amino-5-chloro-7-cyclopropyl-4-(7-fluoro-1H-indazol-4-yl)-1H-1,6-naphthyridin-2-one] |  |  |  | < 10 nM | <1 μL/min/10^6 cell
Cc1ncc(OCC(F)(F)F)c2c(-c3ccc(F)c4[nH]ncc34)c(N)c(=O)[nH]c12 [Example 183, 3-Amino-4-(7-fluoro-1H-indazol-4-yl)-8-methyl-5-(2,2,2-trifuoroethoxy)-1H-1,7-naphthyridin-2-one] |  | 6.20 mL/min/kg |  | 13.4 nM | <1 μL/min/10^6 cell
COc1cnc2c(-c3ccc(F)c4[nH]ncc34)c(N)c(=O)[nH]c2c1C [Example 136, 3-Amino-4-(7-fluoro-1H-indazol-4-yl)-7-methoxy-8-methyl-1H-1,5-naphthyridin-2-one] |  | 6.15 mL/min/kg |  | 17.3 nM | 1.4 μL/min/10^6 cell
Cc1c(C2CC2)cnc2c(-c3ccc(F)c4[nH]ncc34)c(N)c(=O)[nH]c12 [Example 100, 3-Amino-7-cyclopropyl-4-(7-fluoro-1H-indazol-4-yl)-8-methyl-1H-1,5-naphthyridin-2-one] |  |  |  |  | <1 μL/min/10^6 cell
C#Cc1cnc2c(-c3ccc(F)c4[nH]ncc34)c(N)c(=O)[nH]c2c1C [Example 124, 3-Amino-7-ethynyl-4-(7-fluoro-1H-indazol-4-yl)-8-methyl-1H-1,5-naphthyridin-2-one] |  |  | No Flag | < 10 nM | 
Cc1cnc2c(-c3ccc(F)c4[nH]ncc34)c(N)c(=O)[nH]c2c1C [Example 054, 3-Amino-4-(7-fluoro-1H-indazol-4-yl)-7,8-dimethyl-1H-1,5-naphthyridin-2-one] |  |  |  |  | <1 μL/min/10^6 cell
Nc1c(-c2ccc(F)c3[nH]ncc23)c2ncc(Cl)cc2[nH]c1=O [Example 001, 3-Amino-7-chloro-4-(7-fluoro-1H-indazol-4-yl)-1H-1,5-naphthyridin-2-one] |  |  |  |  | 2.1 μL/min/10^6 cell
CCOC(=O)COc1nc2c(-c3ccc(F)c4[nH]ncc34)c(N)c(=O)[nH]c2cc1C [Example 061, Ethyl 2-[[7-amino-8-(7-fluoro-1H-indazol-4-yl)-3-methyl-6-oxo-5H-1,5-naphthyridin-2-yl]oxy]acetate] |  | 6.15 mL/min/kg |  | 17.7 nM | 
